Tested on: Staphylococcus aureus Smith No. 4
Experiment: In vivo antibacterial activity (mouse protection test, number of surviving mice)
Settings: oral, one hour after inoculation, male ddY mice, groups of 20, 10^7 cells per mouse, i.p., living mice for seven days after administration
Procedure: Male ddY mice weighing 20 - 23 g in groups 20 each were inoculated with Staphylococcus aureus Smith No. 4 (10^7 cells per mouse, i.p.). Erythromycin A was used as a control, the compound of formula I wherein R is methyl group("compound 1") was administered orally at one hour after inoculation, and the number of living mice for seven days after administration was calculated to determine the in vivo antibacterial activity.

| SMILES | In vivo Antibacterial Activity [The Number of Surviving Mice] (dose 0.5 mg/mouse) | In vivo Antibacterial Activity [The Number of Surviving Mice] (dose 1 mg/mouse) | In vivo Antibacterial Activity [The Number of Surviving Mice] (dose 2 mg/mouse) | In vivo Antibacterial Activity [The Number of Surviving Mice] (dose 4 mg/mouse) |
| --- | --- | --- | --- | --- |
| CC[C@H]1OC(=O)[C@H](C)[C@@H](O[C@H]2C[C@@](C)(OC)[C@@H](O)[C@H](C)O2)[C@H](C)[C@@H](O[C@@H]2O[C@H](C)C[C@H](N(C)C)[C@H]2O)[C@](C)(O)C[C@@H](C)C(=O)[C@H](C)[C@@H](OC)[C@]1(C)O [Compound 1, 11-0-methylerythromycin A] | 6 | 12 | 20 | 20 |
| CC[C@H]1OC(=O)[C@H](C)[C@@H](O[C@H]2C[C@@](C)(OC)[C@@H](O)[C@H](C)O2)[C@H](C)[C@@H](O[C@@H]2O[C@H](C)C[C@H](N(C)C)[C@H]2O)[C@](C)(O)C[C@@H](C)C(=O)[C@H](C)[C@@H](O)[C@]1(C)O [Erythromycin A] | 4 | 8 | 18 | 20 |

— patent EP0080819A1, “11-0-Alkylerythromycin A derivatives” (TAISHO PHARMACEUTICAL CO. LTD, priority 1981, dated 1983)
